Literature values, collected in the CATMoS acute toxicity set (Mansouri et al. 2021).
Where “and” joins values, the source holds several entries; their conditions need not be identical. Identical values can stand only once.

assay: rat acute oral toxicity; settings: in vivo

Row | Structure (SMILES) | LD50
1 | COP(=O)(OC)OC(c1ccc(Cl)cc1)P(=O)(OC)OC (stereo unspecified) | 3200 mg/kg
2 | O=C(CCNNC(=O)c1ccncc1)NCc1ccccc1 | 1700 mg/kg
3 | NC1Cc2ccccc2C1 | 326 mg/kg
4 | CC(=NNCCC1CCCCC1)C(=O)O | 520 mg/kg
5 | COS(=O)(=O)c1ccccc1 | 740 mg/kg
6 | CCCCC(CC)COC(=O)c1ccccc1C(=O)OCc1ccccc1 (stereo unspecified) | 60000 mg/kg
7 | O=NN(CC(F)(F)F)CC(F)(F)F | 300 mg/kg
8 | CCN1CCc2c3n(c4ccccc24)C(C(=O)OC)=CCC31 (stereo unspecified) | 2350 mg/kg
9 | CCOP(=S)(OCC)OP(=S)(OCC)OCC | 5 mg/kg
10 | CN(C)CCN(Cc1ccc(Cl)cc1)c1ccccn1 | 920 mg/kg
11 | CC(C)C(=O)OC(=O)C(C)C | 7700 mg/kg
12 | O=C(C(Cl)Cl)C(Cl)(Cl)Cl | 200 mg/kg
13 | CC(O)CN(CC(C)O)c1nc(Nc2ccc(C=Cc3ccc(Nc4nc(Nc5cc(S(=O)(=O)O)ccc5S(=O)(=O)O)nc(N(CC(C)O)CC(C)O)n4)cc3S(=O)(=O)O)c(S(=O)(=O)O)c2)nc(Nc2cc(S(=O)(=O)O)ccc2S(=O)(=O)O)n1 (stereo unspecified) | 12100 mg/kg
14 | O=S(=O)(O)c1ccccc1O | 1900 mg/kg
15 | COc1cc(-c2ccc(N)c(OC)c2)ccc1N | 1920 mg/kg
16 | CCCCOCCOCCOCCOCCOCCCC | 6500 mg/kg
17 | Cc1cccc(N2CCN(CC=Cc3ccc4c(c3)CCC(=O)N4)CC2)c1 | 500 mg/kg
18 | CC1(NC(N)=O)CCCCC1 | 1040 mg/kg
19 | CC12CCC(=O)CC1CCC1C2CCC2(C)C(C(=O)COC(=O)CCC(=O)O)CCC12 (stereo unspecified) | 700 mg/kg
20 | CCCC/C=C/C=O | 1300 mg/kg
21 | CC(N)CNCCCO (stereo unspecified) | 5660 mg/kg
22 | CC(CN)NCCO (stereo unspecified) | 4920 mg/kg
23 | CC(C)C1C=C2CC[C@H]3[C@](C)(CO)CCC[C@]3(C)[C@H]2CC1 (stereo partly specified) | 70000 mg/kg

Row | Structure (SMILES) | LD50
24 | CCOC(=O)[C@H](CCc1ccccc1)N[C@@H](C)C(=O)N1Cc2cc(OC)c(OC)cc2C[C@H]1C(=O)O | 4020 mg/kg
25 | O=P1(N(CCCl)CCCl)NCCCO1 (stereo unspecified) | 94 mg/kg
26 | CON(C)C(=O)Nc1ccc(Br)c(Cl)c1 | 2150 mg/kg
27 | CCCCCCCCCCCCCCCCCC(=O)OC[C@@H](O)[C@H]1OC[C@H](O)[C@H]1O | 31000 mg/kg
28 | O=C(O)C(F)(F)C(F)(F)F | 1770 mg/kg
29 | OCc1c(F)c(F)c(F)c(F)c1F | 900 mg/kg
30 | C=CC(=O)N1CN(C(=O)C=C)CN(C(=O)C=C)C1 | 350 mg/kg
31 | CCCCCC1=C(C)CCC1=O | 2500 mg/kg
32 | CCS(=O)(=O)Oc1ccc2c(c1)C(C)(C)CO2 | 2030 mg/kg
33 | C=CC(=O)OCCOC(=O)C=C | 300 mg/kg
34 | O=S(=O)(Cl)CCl | 372 mg/kg
35 | Nc1ccc(/N=N/c2ccc(-c3ccc(/N=N/c4c(S(=O)(=O)O)cc5cc(S(=O)(=O)O)c(/N=N/c6ccccc6)c(O)c5c4N)cc3)cc2)c(N)c1 | 7600 mg/kg
36 | Cn1c(=N)oc2ccc(Cl)cc21 | 1000 mg/kg
37 | Cc1cc(NC(=O)c2ccccc2O)n(-c2ccccc2)n1 | 1320 mg/kg
38 | COCCO[Si](CCCl)(OCCOC)OCCOC | 878 mg/kg
39 | CC(C)(Oc1ccc(Cl)cc1)C(=O)OCCCOC(=O)C(C)(C)Oc1ccc(Cl)cc1 | 7300 mg/kg
40 | N#CCCNC(=O)CCl | 410 mg/kg
41 | CN(C)C(=O)Oc1ccc[n+](C)c1 | 37.5 mg/kg
42 | COC(=O)C[N+](=O)[O-] | 3770 mg/kg
43 | CCN1CN(CC)CN(CC)C1 | 316 mg/kg
44 | CCC(=O)OC1(c2ccccc2)CCN(C)CC1CC (stereo unspecified) | 175 mg/kg
45 | Nc1ccc2[nH]c3ccccc3c2c1 | 1520 mg/kg
46 | CCCOc1ccc(C=CC(=O)OCC)cc1OC | 978 mg/kg

Row | Structure (SMILES) | LD50
47 | O=[N+]([O-])c1ccc(O)cc1 | 320 mg/kg
48 | O=S(=O)(O)OCCOc1cc(Cl)c(Cl)cc1Cl | 720 mg/kg
49 | Cc1ccccc1CN(C)N=O | 90 mg/kg
50 | O=C1C(Cl)=C(NC(=O)C(Cl)Cl)C(=O)c2ccccc21 | 11700 mg/kg
51 | O=S1(=O)CCC(Br)C1 (stereo unspecified) | 215 mg/kg
52 | c1ccc2c(c1)Cc1ccccc1N2 | 2140 mg/kg
53 | COCCl | 500 mg/kg
54 | C=COCCOCCOC=C | 3730 mg/kg
55 | FC(F)(F)C(F)(Br)Br | 54600 mg/kg
56 | CN1CCC(=C2c3ccccc3C=Cc3ccccc32)CC1 | 295 mg/kg
57 | C=CCN(CC=C)C(=O)CSP(=S)(OCC)OCC | 48 mg/kg
58 | COP(=S)(OC)SC(CC(=O)OC(C)C)C(=O)OC(C)C (stereo unspecified) | 4000 mg/kg
59 | O=C(NN=C1SCCS1)c1ccccc1 | 72.8 mg/kg
60 | CNC(C)Cc1ccc(Cl)cc1 (stereo unspecified) | 110 mg/kg
61 | CO[Si](CCCN=C=O)(OC)OC | 878 mg/kg
62 | O=C(O)CSc1nc(-c2ccccc2)ns1 | 500 mg/kg
63 | CC(C)NC1Cc2ccccc2Cc2ccccc21 (stereo unspecified) | 500 mg/kg
64 | C=C1/C(=C\C=C2/CCC[C@]3(C)[C@@H]([C@H](C)/C=C/[C@H](C)C(C)C)CC[C@@H]23)C[C@@H](O)C[C@@H]1O | 3.5 mg/kg
65 | CCC1(c2cccc(O)c2)CCCCN(C)C1 (stereo unspecified) | 1260 mg/kg
66 | COC(=N)N | 3700 mg/kg
67 | C[N+](C)(C)CCCCCCCCCC[N+](C)(C)C | 85 mg/kg
68 | CCOP(=O)(Cc1ccc(-c2nc3ccccc3s2)cc1)OCC | 1560 mg/kg
69 | CCOC(=O)N1C(=O)NC(c2ccccc2)(c2ccccc2)C1=O | 3500 mg/kg

Row | Structure (SMILES) | LD50
70 | CCCN(CCC)C(=O)C(CCC(=O)OCCCOC(=O)Cc1c(C)n(C(=O)c2ccc(Cl)cc2)c2ccc(OC)cc12)NC(=O)c1ccccc1 (stereo unspecified) | 605 mg/kg
71 | CN(C)CCC#N | 2600 mg/kg
72 | CNCCCC1c2ccccc2CN(C)c2ccccc21 (stereo unspecified) | 331 mg/kg
73 | CNC(=O)c1cc(Oc2ccc(N)c(F)c2)ccn1 | 500 mg/kg
74 | C=CCOC(=O)CCC | 250 mg/kg
75 | C[C@@H]1C[C@H]2[C@@H]3C[C@H](F)C4=CC(=O)C=C[C@]4(C)[C@H]3[C@@H](O)C[C@]2(C)[C@H]1C(=O)CO | 245 mg/kg
76 | CCCOC(C1=NCCN1)c1ccccc1 (stereo unspecified) | 350 mg/kg
77 | CN(C(=O)C[N+](C)(C)C)C(=O)Oc1cccc2c1OC(C)(C)C2 | 33.6 mg/kg
78 | COc1ccc2c(c1)OC(C)(C)C(c1ccccc1)=C2c1ccc(OCCN2CCCC2)cc1 | 150 mg/kg
79 | CN1CC(CC(C#N)C(N)=O)CC2c3cccc4[nH]cc(c34)CC21 (stereo unspecified) | 1000 mg/kg
80 | CCOC(=O)C(Cl)Cc1cc(-n2nc(C)n(C(F)F)c2=O)c(F)cc1Cl (stereo unspecified) | 5140 mg/kg
81 | Cc1cc(Cl)ccc1OCC(=O)O | 1200 mg/kg and 800 mg/kg
82 | NCCN1CCNCC1 | 2140 mg/kg
83 | COC(=O)Nc1nc2ccc(C(=O)c3ccc(F)cc3)cc2[nH]1 | 2560 mg/kg
84 | CC(=O)SCC[N+](C)(C)C | 100 mg/kg
85 | COP(=S)(OC)Oc1ccc(C#N)cc1C | 500 mg/kg
86 | Cc1cc(O)ccc1S(C)(=O)=O | 7000 mg/kg
87 | C=CC1(C)OC(=O)N(c2cc(Cl)cc(Cl)c2)C1=O (stereo unspecified) | 10000 mg/kg
88 | CN(C)C1CCc2ccccc2C(Oc2ccc([N+](=O)[O-])cc2)C1 (stereo unspecified) | 534 mg/kg
89 | CCCOC(=O)C1COc2ccccc2O1 (stereo unspecified) | 7450 mg/kg
90 | CC(C)N(CCC(C(N)=O)(c1ccccc1)c1ccccn1)C(C)C (stereo unspecified) | 880 mg/kg and 333 mg/kg
91 | CCCCc1c(OC(=O)c2cc(OC)c(OC)c(OC)c2)n(-c2ccccc2)n(-c2ccccc2)c1=O | 3000 mg/kg
92 | O=c1[nH]c2c(Cl)c(Cl)c(Cl)cc2o1 | 1000 mg/kg

Row | Structure (SMILES) | LD50
93 | CCCCCCCCCc1ccc(O)cc1 | 1620 mg/kg
94 | O=C1c2ccccc2C(=O)N1SC1CCCCC1 | 2600 mg/kg
95 | O=[N+]([O-])O[C@@H]1CO[C@H]2[C@@H]1OC[C@@H]2O | 2010 mg/kg
96 | CC(C(=O)O)c1ccc2c(c1)CC(C(C)C)C2 (stereo unspecified) | 1500 mg/kg
97 | Cc1ncc(CO)c(CN)c1O | 7500 mg/kg
98 | CO[C@@H]1[C@@H](O)[C@@H](O)[C@H](O[C@@H]2C=C3CC[C@@H]4[C@H](CC[C@]5(C)[C@@H](c6ccc(=O)oc6)CC[C@]45O)[C@@]3(C)CC2)O[C@H]1C | 79 mg/kg
99 | N#Cc1cc([N+](=O)[O-])ccc1Cl | 3200 mg/kg
100 | Nc1nc2ccccc2o1 | 600 mg/kg
101 | O=C(O)c1cc(/N=N/c2ccc(S(=O)(=O)Nc3ccccn3)cc2)ccc1O | 15600 mg/kg
102 | CCN(CC)C(=S)Sc1nc2ccccc2s1 | 6000 mg/kg
103 | CN(N=Nc1ccccc1)N=Nc1ccccc1 | 212 mg/kg
104 | CN(C)CCCC1c2ccccc2Nc2ccc(Cl)cc21 (stereo unspecified) | 379 mg/kg
105 | Cc1cc2c(cc1C)C(=O)c1n[nH]nc1C2=O | 980 mg/kg
106 | C=C(Cl)C(Cl)CCl (stereo unspecified) | 341 mg/kg
107 | CNC(=O)Oc1cccc(N=CN(C)C)c1 | 20 mg/kg
108 | O=P(CCn1c(Cc2ccccc2)nc2ccccc21)(OCCCl)OCCCl | 6200 mg/kg
109 | c1ccc(N(c2ccccc2)c2ccccc2)cc1 | 3200 mg/kg
110 | CON(C)C(=O)CC(SP(=S)(OC)OC)C(=O)N(C)OC (stereo unspecified) | 14 mg/kg
111 | CC(C)CCON=O | 505 mg/kg
112 | CC(C)OP(=S)(CCl)Sc1ccc(Br)cc1 (stereo unspecified) | 23 mg/kg
113 | CCCSP(=O)(OC)OC | 9.4 mg/kg
114 | CC(CCCCCCCCCCCCCCCCC(=O)O)N(C)Cc1cc(C(C)N(C)CCCCCCCCCCCCCCCCCC(=O)O)cc(C(C)N(C)CCCCCCCCCCCCCCCCCC(=O)O)c1O (stereo unspecified) | 11800 mg/kg
115 | O=C1CCc2cc(C=CCN3CCN(c4ccc(Cl)cc4)CC3)ccc2N1 | 500 mg/kg

Row | Structure (SMILES) | LD50
116 | Cc1cc(S(=O)(=O)O)cc(C)c1O | 2650 mg/kg
117 | CON=C(C(=O)N[C@@H]1C(=O)N2C(C(=O)O)=C(COC(N)=O)CS[C@H]12)c1ccco1 | 10000 mg/kg
118 | C=CC(=O)OCCOCCOCCOCCOC(=O)C=C | 813 mg/kg
119 | CCCCCCCCCCCO | 3000 mg/kg
120 | CC(C)NCC(O)COc1cccc2cc(C(C)O)oc12 (stereo unspecified) | 2130 mg/kg
121 | CC(C)[C@@]1(O)[C@@H](OC(=O)c2ccc[nH]2)[C@@]2(O)[C@@]3(C)C[C@]4(O)O[C@@]5([C@H](O)[C@@H](C)CC[C@]35O)[C@@]2(O)[C@@]14C | 750 mg/kg
122 | C/C(=N\O)C(=O)c1ccccc1 | 4240 mg/kg
123 | CC(C)CC(=O)CC1(C)CCC(c2ccoc2)O1 (stereo unspecified) | 350 mg/kg
124 | OCCOCCN1CCN(CCOC(c2ccccc2)c2ccc(Cl)cc2)CC1 (stereo unspecified) | 800 mg/kg
125 | CS(=O)(=O)c1ccc(N)c(Cl)c1 | 9500 mg/kg
126 | O=S(=O)(CCCl)COCS(=O)(=O)CCCl | 168 mg/kg
127 | N#CC(CCN1CCC(C(=O)O)(c2ccccc2)CC1)(c1ccccc1)c1ccccc1 | 149 mg/kg
128 | CNc1nc(C)nc(OC)n1 | 394 mg/kg
129 | CC(C)(C)c1ccc2c(c1)C(C)(C)CC2 | 15500 mg/kg
130 | CCn1c(=O)c2ccccc2n(-c2cccc(C(F)(F)F)c2)c1=O | 1500 mg/kg
131 | CCN(CC)CCOC(=O)c1cccnc1 | 8400 mg/kg
132 | CC(C)c1s[nH]c2nc(C(C)(C)C)nc(=O)c1-2 | 10200 mg/kg
133 | CC(=O)N(C)N=O | 20 mg/kg
134 | Clc1c(Cl)c(Cl)c2c(c1Cl)Oc1c(Cl)c(Cl)c(Cl)c(Cl)c1O2 | 1 mg/kg
135 | CCOP(=S)(OCC)SCn1ncccc1=O | 2.5 mg/kg
136 | C[C@]12CCC(=O)C=C1[C@@H]1C[C@@H]1[C@@H]1[C@@H]2CC[C@@]2(C)[C@H]1CC[C@@]2(O)CCC(=O)O | 1400 mg/kg
